Experimental data: patent US20090156825A1, “Fluorescent compounds that bind to histone deacetylase” (priority 2007, published 2009)
“Also recorded” adds a separate entry of the source.

Molecular target: T1, HDAC1 (Homo sapiens, UniProt Q13547)
T1 construct: Flag
Test: Fluorescence polarization Kd determination of FITC-labeled compounds by HDAC1 titration
Type: binding
Details: for time for binding to come to equilibrium: FP read over time after adding the FITC-labeled compound to HDAC1; for binding mechanism (exponential fit of Kd app versus time): replot of Kd app values vs. time, 1-phase or 2-phase exponential fit
Experimental: Titrations of HDAC1 were set up in 96-well black, flat-bottom plates. The concentrations of HDAC1 varied from 5 to 200 nM (with COMPOUND 1 and COMPOUND 2) or 20 to 450 nM (with COMPOUND 3). At time zero, the FITC-labeled compound was added and the plate inserted into the Analyst HT for FP detection. The samples were read every 5 seconds through ˜10 minutes (COMPOUND 1) or 2 hours (COMPOUND 2 and COMPOUND 3). The data at each time point was converted from mP to […] and plotted in Prism using an equation for ligand binding taking ligand-depletion into consideration (Equations 1-3) (An example of which is given in FIG. 1A).
where Lt is total fluorescently-labeled compound concentration, Rt is total HDAC concentration, Kd is the dissociation constant for the ligand to HDAC, Ab is the anisotropy when 100% of the ligand is bound, and Af is the anisotropy when 100% of the ligand is free. The values determined by the data as plotted in Figure A are Kd^app, Ab, and Af.
After determining the Kd^app for each time point, the Kd^app was replotted versus time (FIG. 1B) to determine true steady-state Kd. […] The plateau value of this exponential decay defines the steady-state Kd value.

T1 sequence (Q13547 whole entry): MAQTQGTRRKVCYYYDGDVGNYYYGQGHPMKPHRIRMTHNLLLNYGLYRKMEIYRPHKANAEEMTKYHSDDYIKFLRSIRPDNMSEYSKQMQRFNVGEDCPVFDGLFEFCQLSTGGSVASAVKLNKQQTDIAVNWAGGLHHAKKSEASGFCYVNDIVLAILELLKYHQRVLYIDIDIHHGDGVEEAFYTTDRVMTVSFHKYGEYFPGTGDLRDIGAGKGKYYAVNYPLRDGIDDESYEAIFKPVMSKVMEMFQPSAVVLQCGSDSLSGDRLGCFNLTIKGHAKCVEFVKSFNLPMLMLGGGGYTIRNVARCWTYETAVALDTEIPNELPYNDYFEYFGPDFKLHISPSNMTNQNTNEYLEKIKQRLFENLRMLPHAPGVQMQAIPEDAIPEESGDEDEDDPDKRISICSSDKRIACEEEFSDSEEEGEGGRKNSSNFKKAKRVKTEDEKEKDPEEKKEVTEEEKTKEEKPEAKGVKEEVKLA

Row | Structure (SMILES) | time for binding to come to equilibrium | Kd (plateau of Kd app replotted versus time, HDAC1 5 to 200 nM, FP detection, read-out: true steady-state Kd) [nM] | binding mechanism (exponential fit of Kd app versus time) | binding mechanism (exponential fit of Kd app versus time) (listed as FITC-SAHA)
1 | O=C(CCCCCCC(=O)Nc1ccc(CNC(=S)Nc2ccc(-c3c4ccc(=O)cc-4oc4cc(O)ccc34)c(C(=O)O)c2)cc1)NO [COMPOUND 1, 5-({[(4-{[8-(hydroxyamino)-8-oxooctanoyl]amino}benzyl)amino]carbonothioyl}amino)-2-(6-hydroxy-3-oxo-3H-xanthen-9-yl)benzoic acid] | faster than could be measured by the instrument used | 16 | classical 1-step binding mechanism | fits 1-phase exponential curve quite well
2 | Nc1ccc(-c2ccccc2)cc1NC(=O)c1ccc(CNC(=O)OCc2ccc(CNC(=S)Nc3ccc(-c4c5ccc(=O)cc-5oc5cc(O)ccc45)c(C(=O)O)c3)cc2)cc1 [COMPOUND 2, 5-{[({4-[({[(4-{[(4-aminobiphenyl-3-yl)amino]carbonyl}benzyl)amino]carbonyl}oxy)methyl]benzyl}amino)carbonothioyl]amino}-2-(6-hydroxy-3-oxo-3H-xanthen-9-yl)benzoic acid] | 210 min |  | requires a 2-phase exponential curve; also recorded: bound slowly with an induced-fit mechanism | 
